In the assay the test system is 1A9 ovarian cancer cells. In words: Anti-proliferative activity in 1A9 ovarian cancer cells. The class given is cell-based. To be noted: for Antiproliferative activity (in words): antiproliferative assays, highest concentration tested 50 μM.

These results are taken from publication PMC4183140 (Journal of medicinal chemistry, 2009).

On to `CC[C@H](C)[C@H](NC(=O)[C@H]1CCCCN1C)C(=O)N[C@H](C[C@@H](O)c1nc(C(=O)N[C@@H](Cc2ccccc2)C[C@H](C)C(=O)O)cs1)C(C)C` [Compound 4, tubulysin V], for which the “Fold more active than epi-tubulysin V in the antiproliferative assays” value (antiproliferative assays (1A9 and MCF-7), relative to epi-tubulysin V) is given as 30–45 fold.

For `CC[C@H](C)[C@H](NC(=O)[C@@H](C)N(C)C)C(=O)N[C@H](CC(=O)c1nc(C(=O)N[C@@H](Cc2ccccc2)C[C@H](C)C(=O)O)cs1)C(C)C` [Compound 21], the “Antiproliferative activity (in words)” value was “not active”.

With `CC[C@H](C)[C@H](NC(=O)[C@@H](C)N(C)C)C(=O)N[C@H](CC(=O)c1nc(C(=O)N[C@H](CCC(=O)O)Cc2ccccc2)cs1)C(C)C` [Compound 22], the “Antiproliferative activity (in words)” value is reported as “sub-micromolar activity”.
